The values below come from patent US20020147232A1 (priority 2000, published 2002).

Series [1] concerns pilomotor reaction. The following applies: oral, seven healthy volunteers; cited from earlier work.
The nature of series [2]: Stability of desglymidodrine in solution (comparison of peak areas). The format is physicochemical. The following applies: for 0 days (peak area), autoclave series: before autoclave. The text has this: The tablets were subject to stability testning. […] The following initial results were obtained:
Stability of desglymidodrinein solution
Based on comparison of peak areas

The conditions of series [3]: Tsutsui, n = 5 healthy volunteers, label = administered drug, cited from earlier work.
Series [4] relates to blood pressure. The conditions noted are these: cited from earlier work.
Series [5] in a line: Stability of desglymidodrine (calibration curve of desglymidodrine). The format is physicochemical.
The test system of series [6] is blood pressure. The conditions noted are these: oral single dose; cited from earlier work.
[7] abbreviates: solution in Buffer pH 7.4, 0 days.

Consider `COc1ccc(OC)c(C(O)CN)c1` (stereo not drawn) [desglymidodrine, alpha-(aminomethyl)-2,5-dimethoxy-benzenemethanol], for which the “duration of effect (pilomotor reaction)” value in series [1] is listed as 160 (135-185) min. For the same compound, in series [1], the “time to occurrence of pilomotor reaction” value is 34 ± 25 min. Further, the “peak area, 0 days” value in series [2] (solution in 0.1N HCl, 0 days) stood at 1548689; in series [2] (setting [7]) it was 1341613; in series [2] (solution in Water, 0 days) it was 1582140. For the same compound, the “0 days (peak area), autoclave series” value stood at 99 in series [2] (solution in 0.1N HCl, 0 days); 102 in series [2] (setting [7]); 100 in series [2] (solution in Water, 0 days). In addition, the “peak area, 7 days” value is reported as 1516212 in series [2] (solution in 0.1N HCl, 7 days); 1289393 in series [2] (solution in Buffer pH 7.4, 7 days); 1601999 in series [2] (solution in Water, 7 days). Moreover, the “Autoclave 120° C.” value in series [2] (solution in 0.1N HCl, after autoclave 120° C.) is recorded as 101; in series [2] (solution in Buffer pH 7.4, after autoclave 120° C.), 102; in series [2] (solution in Water, after autoclave 120° C.), 100. Moreover, in series [3] (analyte desglymidodrine), the Tmax desglymidodrine is listed as 1.2 ± 0.2 h. The “duration of blood pressure effect” value in series [4] (intravenous injection of 5 mg) is 3 to 4 min. In addition, the “content of desglymidodrine, 14 days” value came out at 103 in series [5] (Glass, 25° C./60% RH 1.2mioluxh); 103 in series [5] (Glass, 25° C./60% RH); 102 in series [5] (Glass, 40° C./75% RH); 102 in series [5] (Open petri dish, 25° C./60% RH); 102 in series [5] (Open petri dish, 40° C./75% RH). Further, the “content of desglymidodrine, 0 days” value in series [5] (Glass, 25° C./60% RH) was determined as 100; in series [5] (Open petri dish, 25° C./60% RH), 100. The “content of desglymidodrine, 21 days” value in series [5] (Glass, 25° C./60% RH) turned out to be 100; in series [5] (Glass, 40° C./75% RH) it was 100; in series [5] (Open petri dish, 25° C./60% RH), 100; in series [5] (Open petri dish, 40° C./75% RH), 97.
In the case of `COc1ccc(OC)c(C(O)CNC(=O)CN)c1` (stereo not drawn) [midodrine, 2-amino-N-[2-(2,5-dimethoxyphenyl)-2-hydroxyethyl]-acetamide, reference compound], in series [6], the “persistence of pressor effect” value is 3 to 6 h and the “time until pressor effect is manifest” value is 20 to 90 min. Further, in series [1], the “duration of effect (pilomotor reaction)” value is 150 (30-240) min and the “time to occurrence of pilomotor reaction” value was 74 ± 29 min. Further, the Tmax midodrine in series [3] (analyte midodrine) was 1.4 ± 0.2 h. The “intravenous dose as potent as 5 mg desglymidodrine i.v. with respect to increase of blood pressure” value in series [4] (intravenous) is 20 to 25 mg.
